The record followed here is patent publication US12648946B2, “Combination of antibody-pyrrolobenzodiazepine derivative conjugate and PARP inhibitor” (DAIICHI SANKYO COMPANY, LIMITED, priority 2019, dated 2026).

Assay [1] deals with human breast cancer cell line JIMT-1. Put plainly: Antitumor test (2), subcutaneous xenograft. It is filed as in vivo, mouse. The conditions noted are these: single administration. As for the experimental part: Mouse: Five- to six-week-old female BALB/c nude mice (Charles River Laboratories Japan, Inc.) were subjected to experiment. Assay and calculation formula: In all of the studies, the major axis and minor axis of a tumor were measured twice a week by using an electronic digital caliper ([…] Corp.), and the tumor volume (mm^3) was calculated. The calculation formula is as shown below. [formula] Each of the anti-CLDN6 antibody-drug conjugate ADC1, the anti-HER2 antibody-drug conjugate ADC2, and the anti-TROP2 antibody-drug conjugate ADC3 was diluted with ABS buffer (10 mM acetate buffer (pH 5.5), 5% sorbitol), and a liquid volume of 10 mL/kg was intravenously administered into the tail vein. […] LLC)/Dulbecco's Phosphate-Buffered Saline, and then a liquid volume of 10 mL/kg was intraperitoneally administered. […] LLC)/Dulbecco's Phosphate-Buffered Saline, and then a liquid volume of 10 mL/kg was orally administered. Niraparib was dissolved in DMSO, diluted with 0.5% methylcellulose, and then a liquid volume of 10 mL/kg was orally administered. The described method is common to Examples 34 to 37. […]

In assay [2] the test system is human lung cancer cell line Calu-6. Put plainly: Cell growth inhibition test (1). It is filed as cell-based. To be noted: for IC50: Calu-6, 144 h. The protocol:
The human lung cancer cell line Calu-6 obtained from ATCC (American Type Culture Collection) was used for evaluation. Cells were prepared with MEM containing 10% fetal bovine serum (GE Healthcare), MEM Non-Essential Amino Acids Solution (Thermo Fisher Scientific), and Sodium Pyruvate (Thermo Fisher Scientific) (Thermo Fisher Scientific; hereinafter, referred to as EMEM medium) to reach 1.25×10^4 cells/mL, and 80 μL portions of them were added into a 96-well cell culture microplate. After addition of the cells, the cells were cultured at 37° C. and 5% CO2 overnight.
On the next day, 10 μL portions of pyrrolobenzodiazepine derivative A, B, or C diluted with EMEM medium to 100 pM, 50 pM, 25 pM, 12.5 pM, 6.25 pM, 3.13 pM, 1.56 pM, or 0.78 pM were added to the microplate. To each well without any pyrrolobenzodiazepine derivative, 10 μL of EMEM medium was added. Further, 10 μL portions of olaparib prepared with EMEM medium to reach 2 μM were added to the microplate. To each well without olaparib, 10 μL of EMEM medium was added. Thereafter, the microplate was cultured at 37° C. and 5% CO2 for 6 days. After culturing, the microplate was taken out of the incubator, and left to stand at room temperature for 30 minutes. CellTiter-Glo Luminescent Cell Viability Assay (Promega Corporation) in an amount equivalent to that of the culture solution was added, and stirred using a plate mixer. The microplate was left to stand at room temperature for 10 minutes, and thereafter the amount of emission was measured by using a plate reader (PerkinElmer).
Cell survival rates in wells with derivative A, B, or C were calculated by using the following formula.
[formula] • a: Mean value of amounts of emission from wells with derivative A, B, or C • b: Mean value of amounts of emission from wells with medium • IC50 values were calculated by using the following formula.
[formula] • a: Concentration of derivative A, B, or C, a • b: Concentration of derivative A, B, or C, b • c: Cell survival rate when derivative A, B, or C of concentration a was added • d: Cell survival rate when derivative A, B, or C of concentration b was added • a and b satisfy a>b at points sandwiching a cell survival rate of 50%.
Cell survival rates in wells with derivative A, B, or C added together with 2 μM olaparib were calculated by using the following formula.
[formula] a: Mean value of amounts of emission from wells with derivative A, B, or C added together with 2 μM olaparib • b: Mean value of amounts of emission from wells with 2 μM olaparib • IC50 values were calculated by using the following formula.
[formula] • a: Concentration of derivative A, B, or C, a • b: Concentration of derivative A, B, or C, b • c: Cell survival rate when derivative A, B, or C of concentration a and 2 μM olaparib were added • d: Cell survival rate when derivative A, B, or C of concentration b and 2 μM olaparib were added • a and b satisfy a>b at points sandwiching a cell survival rate of 50%.

Where two headings read alike, the source gives them in different places. Bounds are passed on as bounds.

One may read the inhibition as the change of the read-out against control, counted positive when it falls. One may read the IC50 as the concentration at which inhibition is half-maximal.

On to `Cn1ncnc1[C@H]1c2n[nH]c(=O)c3cc(F)cc(c23)N[C@@H]1c1ccc(F)cc1` [talazoparib], for which the tumor growth-suppressing effect entry in assay [1] (talazoparib 0.8 mg/kg oral for 5 days from Day 0, JIMT-1) is reported as “No tumor growth-suppressing effect”.

Take `O=C(c1cc(Cc2n[nH]c(=O)c3ccccc23)ccc1F)N1CCN(C(=O)C2CC2)CC1` [olaparib, reference compound]: the inhibition at 2 µM in assay [2] (144 h, 2 μM olaparib alone, Calu-6, 6 days) was under 10%. In assay [1] (olaparib 50 mg/kg i.p. for 5 days from Day 0, JIMT-1), the tumor growth-suppressing effect entry is “No tumor growth-suppressing effect”.

As to `COc1ccc(C2=CN3C(=O)c4cc(OC)c(OCCCCCOc5cc6c(cc5OC)C(=O)N5CC7(CC7)C[C@H]5C=N6)cc4NC[C@@H]3C2)cc1` [derivative A, (11a′S)-7′-Methoxy-8′-[(5-{[(11aS)-7-methoxy-2-(4-methoxyphenyl)-5-oxo-5,10,11,11a-tetrahydro-1H-pyrrolo[2,1-c][1,4]benzodiazepin-8-yl]oxy}pentyl)oxy]-1′,11a′-dihydro-5′H-spiro[cyclopropane-1,2′-pyrrolo[2,1-c][1,4]benzodiazepine]-5′-one], the IC50 in assay [2] (read-out: IC50, growth-suppressing effect, added singly, Calu-6, 6 days) was 6.8 pM; in assay [2] (read-out: IC50, growth-suppressing effect, added together with 2 μM olaparib, Calu-6, 6 days) it was 4.3 pM.
